Experimental data reported in ChEMBL document CHEMBL4622849, “Discovery of ethyl ketone-based HDACs 1, 2, and 3 selective inhibitors for HIV latency reactivation” (Bioorg Med Chem Lett, 2020).

Columns and labels:
[1] = test system: Human immunodeficiency virus; experiment: microbe, parasite or virus in culture; type: functional, organism-based; settings: Human immunodeficiency virus 1, 2C4
Description: Reactivation of HIV latency infected in human 2C4 cells in presence of 0.1 % NHS by luciferase reporter gene assay

[2] = test system: Human immunodeficiency virus; experiment: microbe, parasite or virus in culture; type: functional, organism-based; settings: Human immunodeficiency virus 1, 2C4; remark: listed apart in the source
[3] = target: T1, Protein deacetylase HDAC6 (Homo sapiens, UniProt Q9UBN7); type: ADME
T1 sequence (Q9UBN7 whole entry): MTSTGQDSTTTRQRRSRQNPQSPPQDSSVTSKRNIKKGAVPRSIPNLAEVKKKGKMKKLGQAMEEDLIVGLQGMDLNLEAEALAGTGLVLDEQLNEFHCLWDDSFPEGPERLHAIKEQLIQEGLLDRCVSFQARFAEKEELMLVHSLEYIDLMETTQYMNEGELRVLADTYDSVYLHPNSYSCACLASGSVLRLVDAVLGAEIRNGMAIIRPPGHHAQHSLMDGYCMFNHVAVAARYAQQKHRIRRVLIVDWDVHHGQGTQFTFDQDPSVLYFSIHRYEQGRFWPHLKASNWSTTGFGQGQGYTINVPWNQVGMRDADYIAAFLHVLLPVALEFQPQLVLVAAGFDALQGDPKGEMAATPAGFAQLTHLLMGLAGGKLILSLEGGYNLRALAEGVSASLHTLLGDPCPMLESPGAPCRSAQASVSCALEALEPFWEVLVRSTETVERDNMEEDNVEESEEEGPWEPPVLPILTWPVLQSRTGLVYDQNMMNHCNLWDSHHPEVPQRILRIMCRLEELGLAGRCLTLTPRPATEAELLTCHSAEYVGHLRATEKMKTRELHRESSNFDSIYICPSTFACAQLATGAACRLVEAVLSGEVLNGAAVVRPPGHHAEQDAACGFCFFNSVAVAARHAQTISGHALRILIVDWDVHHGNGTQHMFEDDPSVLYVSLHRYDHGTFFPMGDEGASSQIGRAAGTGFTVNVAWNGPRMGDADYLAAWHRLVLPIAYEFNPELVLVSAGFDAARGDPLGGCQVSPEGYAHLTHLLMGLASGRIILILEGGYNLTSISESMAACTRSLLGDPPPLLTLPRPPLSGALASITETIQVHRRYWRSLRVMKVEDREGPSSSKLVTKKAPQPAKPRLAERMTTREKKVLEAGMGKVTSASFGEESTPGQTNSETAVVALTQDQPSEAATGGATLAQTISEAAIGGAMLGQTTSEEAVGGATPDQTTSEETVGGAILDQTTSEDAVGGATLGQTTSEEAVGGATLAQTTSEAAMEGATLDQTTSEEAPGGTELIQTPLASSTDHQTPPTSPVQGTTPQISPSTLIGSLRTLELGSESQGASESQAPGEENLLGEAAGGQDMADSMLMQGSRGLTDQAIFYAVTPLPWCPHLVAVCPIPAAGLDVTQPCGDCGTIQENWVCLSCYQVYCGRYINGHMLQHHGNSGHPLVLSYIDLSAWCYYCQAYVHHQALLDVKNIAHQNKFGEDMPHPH
Description: Inhibition of HDAC6 (unknown origin)

Histone deacetylase 8 = target: T2, Histone deacetylase 8 (Homo sapiens, UniProt Q9BY41); type: ADME
T2 sequence (Q9BY41 whole entry): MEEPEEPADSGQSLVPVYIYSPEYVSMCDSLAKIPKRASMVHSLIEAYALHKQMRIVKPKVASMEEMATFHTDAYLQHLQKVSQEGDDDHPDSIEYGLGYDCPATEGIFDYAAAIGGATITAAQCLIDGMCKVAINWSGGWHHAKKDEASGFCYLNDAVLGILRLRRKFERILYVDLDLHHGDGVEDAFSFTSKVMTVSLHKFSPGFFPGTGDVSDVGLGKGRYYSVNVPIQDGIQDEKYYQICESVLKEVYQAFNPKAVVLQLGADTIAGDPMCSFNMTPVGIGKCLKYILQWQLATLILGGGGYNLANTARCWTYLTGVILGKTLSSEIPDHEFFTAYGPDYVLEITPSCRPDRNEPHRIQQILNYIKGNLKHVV
Description: Inhibition of HDAC8 (unknown origin)

[4] = AUC in Wistar Han rat at 10 mg/kg, po; type: ADME, organism-based; settings: in vivo
[5] = Cmax in Wistar Han rat at 10 mg/kg, po; type: ADME, organism-based; set-up: dose 10 mg/kg, route oral; settings: in vivo
[6] = Half life in Wistar Han rat at 2 mg/kg, iv or 10 mg/kg, po; type: ADME, organism-based; settings: in vivo
[7] = Clearance in Wistar Han rat at 2 mg/kg, iv or 10 mg/kg, po; type: ADME, organism-based; settings: in vivo
[8] = Oral bioavailability in Wistar Han rat at 10 mg/kg; type: ADME, organism-based; settings: in vivo
Histone deacetylase 1 = Histone deacetylase 1 (Homo sapiens, UniProt Q13547)
Sequence of Histone deacetylase 1 (Q13547 whole entry): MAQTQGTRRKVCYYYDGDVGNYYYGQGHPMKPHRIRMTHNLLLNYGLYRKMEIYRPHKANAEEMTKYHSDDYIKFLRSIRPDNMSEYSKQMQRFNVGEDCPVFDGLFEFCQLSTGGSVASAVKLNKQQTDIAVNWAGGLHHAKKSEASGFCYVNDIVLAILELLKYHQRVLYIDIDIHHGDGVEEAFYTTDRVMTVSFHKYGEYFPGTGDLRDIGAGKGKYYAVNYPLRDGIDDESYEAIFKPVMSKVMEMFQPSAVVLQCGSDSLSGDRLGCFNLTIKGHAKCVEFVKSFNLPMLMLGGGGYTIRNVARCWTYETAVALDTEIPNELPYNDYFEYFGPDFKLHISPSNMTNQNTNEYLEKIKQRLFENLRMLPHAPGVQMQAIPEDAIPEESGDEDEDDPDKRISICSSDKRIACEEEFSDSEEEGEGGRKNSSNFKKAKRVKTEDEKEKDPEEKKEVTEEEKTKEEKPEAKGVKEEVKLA
Description: Inhibition of HDAC1 (unknown origin)

Histone deacetylase 2 = Histone deacetylase 2 (Homo sapiens, UniProt Q92769)
Sequence of Histone deacetylase 2 (Q92769 whole entry): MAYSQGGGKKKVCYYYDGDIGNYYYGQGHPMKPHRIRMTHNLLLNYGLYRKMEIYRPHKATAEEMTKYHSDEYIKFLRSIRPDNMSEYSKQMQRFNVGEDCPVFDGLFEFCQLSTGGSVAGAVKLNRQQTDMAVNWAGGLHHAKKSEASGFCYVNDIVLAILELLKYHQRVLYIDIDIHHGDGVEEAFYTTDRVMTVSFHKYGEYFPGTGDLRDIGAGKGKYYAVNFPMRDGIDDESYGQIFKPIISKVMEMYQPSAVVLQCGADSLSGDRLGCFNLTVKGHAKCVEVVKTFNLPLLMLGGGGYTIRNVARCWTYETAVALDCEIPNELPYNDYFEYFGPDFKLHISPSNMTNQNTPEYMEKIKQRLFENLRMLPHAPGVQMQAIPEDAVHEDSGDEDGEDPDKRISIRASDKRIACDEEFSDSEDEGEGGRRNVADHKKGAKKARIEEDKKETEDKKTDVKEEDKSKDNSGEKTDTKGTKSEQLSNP
Description: Inhibition of HDAC2 (unknown origin)

[9] = AUC in Beagle dog at 2 mg/kg, po; type: ADME, organism-based, Canis lupus familiaris; settings: in vivo
[10] = Cmax in Beagle dog at 2 mg/kg, po; type: ADME, organism-based, Canis lupus familiaris; set-up: dose 2 mg/kg, route oral; settings: in vivo
[11] = Half life in Beagle dog at 1 mg/kg, iv or 2 mg/kg, po; type: ADME, organism-based, Canis lupus familiaris; settings: in vivo
[12] = Clearance in Beagle dog at 1 mg/kg, iv or 2 mg/kg, po; type: ADME, organism-based, Canis lupus familiaris; settings: in vivo
[13] = Oral bioavailability in Beagle dog at 2 mg/kg; type: ADME, organism-based, Canis lupus familiaris; settings: in vivo

SMILES | EC50 [1] | EC50 [2] | other results
CCC(=O)CCCCC[C@H](NC(=O)[C@H]1CC12CCN(C(C)=O)CC2)c1ncc(-c2cc3ccccc3nc2OC)[nH]1 | 1560 nM | 9850 nM | IC50 [3]: 1170 nM; IC50 (Histone deacetylase 8): 2270 nM
CCC(=O)CCCCC[C@H](NC(=O)[C@H]1CC12CCN(C)CC2)c1nnc(-c2cc3ccccc3nc2OC)[nH]1 | 1620 nM | 2580 nM | IC50 [3]: 92 nM; IC50 (Histone deacetylase 8): 1930 nM
CCCN1CCC2(CC1)C[C@@H]2C(=O)N[C@@H](CCCCCC(=O)CC)c1ncc(-c2cc3ccccc3nc2OC)[nH]1 | 154 nM | 895 nM | –
CCC(=O)CCCCC[C@H](NC(=O)[C@H]1CC12CCN(CC)CC2)c1nnc(-c2cc3ccccc3nc2OC)[nH]1 | 1230 nM | 1880 nM | IC50 [3]: 95 nM; IC50 (Histone deacetylase 8): 2990 nM
CCC(=O)CCCCC[C@H](NC(=O)[C@@H]1CC12CCOCC2)c1ncc(-c2cc3ccccc3nc2OC)[nH]1 | 647 nM | 5040 nM | –
CCC(=O)CCCCC[C@H](NC(=O)CC1CC2(C1)CN(C)C2)c1ncc(-c2cc3ccccc3nc2OC)[nH]1 | 130 nM | 810 nM | IC50 (Histone deacetylase 1): 1 nM
CCC(=O)CCCCC[C@H](NC(=O)[C@H]1CC12CCN(C(C)C)CC2)c1ncc(-c2cc3ccccc3nc2OC)o1 | 161 nM | 309 nM | IC50 (Histone deacetylase 1): 3.5 nM
CCC(=O)CCCCC[C@H](NC(=O)[C@H]1CC12CCN(C)CC2)c1nnc(-c2cc3ccccc3nc2OC)o1 | 689 nM | 691 nM | IC50 (Histone deacetylase 8): 45000 nM
CCC(=O)CCCCC[C@H](NC(=O)[C@H]1CC12CCOCC2)c1ncc(-c2cc3ccccc3nc2OC)[nH]1 | 234 nM | 1790 nM | –
CCC(=O)CCCCC[C@H](NC(=O)[C@@H]1CC12CCC(N(C)C)CC2)c1ncc(-c2cc3ccccc3nc2OC)[nH]1 (some centres undefined) | 441 nM | 1140 nM | IC50 [3]: 759 nM; IC50 (Histone deacetylase 8): 5580 nM
CCC(=O)CCCCC[C@H](NC(=O)[C@@H]1C[C@@]12CCN(C)C2)c1ncc(-c2cc3ccccc3nc2OC)[nH]1 | 309 nM | 1150 nM | –
CCC(=O)CCCCC[C@H](NC(=O)[C@@H]1C[C@]12CCN(C)C2)c1ncc(-c2cc3ccccc3nc2OC)[nH]1 | 261 nM | 1140 nM | IC50 [3]: 149 nM
CCC(=O)CCCCC[C@H](NC(=O)[C@@H]1CC12CCCN(C)C2)c1ncc(-c2cc3ccccc3nc2OC)[nH]1 (some centres undefined) | 257 nM | 1010 nM | –
CCC(=O)CCCCC[C@H](NC(=O)C1=NOC2(CCN(C)CC2)C1)c1ncc(-c2cc3ccccc3nc2OC)[nH]1 | 126 nM | 941 nM | IC50 (Histone deacetylase 2): 5.2 nM
CCC(=O)CCCCC[C@H](NC(=O)[C@@H]1CC12CCN(C)CC2)c1ncc(-c2cc3ccccc3nc2OC)[nH]1 | 339 nM | 1370 nM | –
CCC(=O)CCCCC[C@H](NC(=O)[C@H]1CC12CN(C)C2)c1ncc(-c2cc3ccccc3nc2OC)[nH]1 | 155 nM | 633 nM | IC50 [3]: 299 nM; IC50 (Histone deacetylase 8): 2020 nM
CCC(=O)CCCCC[C@H](NC(=O)C1CC2(C1)CN(C)C2)c1ncc(-c2cc3ccccc3nc2OC)[nH]1 | 130 nM | 840 nM | –
CCC(=O)CCCCC[C@H](NC(=O)[C@@H]1CCC12CCN(CC)CC2)c1ncc(-c2cc3ccccc3nc2OC)[nH]1 | 161 nM | 720 nM | IC50 [3]: 518 nM; IC50 (Histone deacetylase 8): 2330 nM
CCC(=O)CCCCC[C@H](NC(=O)[C@H]1CC12CCN(C)CC2)c1ncc(-c2cc3ccccc3nc2OC)o1 | 194 nM | 310 nM | IC50 (Histone deacetylase 1): 1.5 nM; IC50 (Histone deacetylase 2): 4.7 nM; AUC [4]: 6.77 µM·h; Cmax [5]: 700 nM; half-life [6]: 3.2 h; clearance [7]: 11 mL/min/kg; bioavailability [8]: 20.6%

Stronger by EC50 [1], values ahead:

EC50 [1] | EC50 [2] | SMILES | other results
73 nM | 321 nM | CCC(=O)CCCCC[C@H](NC(=O)[C@H]1C[C@@]12CCN(C)C2)c1ncc(-c2cc3ccccc3nc2OC)[nH]1 | –
111 nM | 151 nM | CCC(=O)CCCCC[C@H](NC(=O)[C@H]1CC12CCN(CC)CC2)c1ncc(-c2cc3ccccc3nc2OC)o1 | AUC [4]: 14 µM·h; Cmax [5]: 1430 nM; half-life [6]: 8.6 h; clearance [7]: 15 mL/min/kg; bioavailability [8]: 68.9%
113 nM | 180 nM | CCC(=O)CCCCC[C@H](NC(=O)[C@H]1CC12CCN(Cc1ccc(OC)cc1)CC2)c1ncc(-c2cc3ccccc3nc2OC)[nH]1 | –
32 nM | 57 nM | CCC(=O)CCCCC[C@H](NC(=O)[C@H]1CC12CCN(C(C)C)CC2)c1ncc(-c2cc3ccccc3nc2OC)[nH]1 | –
43 nM | 110 nM | CCC(=O)CCCCC[C@H](NC(=O)[C@H]1CCC12CCN(CC)CC2)c1ncc(-c2cc3ccccc3nc2OC)[nH]1 | –
78 nM | 343 nM | CCC(=O)CCCCC[C@H](NC(=O)[C@H]1CC12CCN(CCC(F)(F)F)CC2)c1ncc(-c2cc3ccccc3nc2OC)[nH]1 | –
74 nM | 175 nM | CCC(=O)CCCCC[C@H](NC(=O)[C@H]1CC12CCN(Cc1ccccc1)CC2)c1ncc(-c2cc3ccccc3nc2OC)[nH]1 | –
36 nM | 60 nM | CCC(=O)CCCCC[C@H](NC(=O)[C@H]1CC12CCC(N(C)C)CC2)c1ncc(-c2cc3ccccc3nc2OC)[nH]1 (some centres undefined) | IC50 [3]: 363 nM; IC50 (Histone deacetylase 8): 75 nM
74 nM | 287 nM | CCC(=O)CCCCC[C@H](NC(=O)[C@@H]1CC12CN(C)C2)c1ncc(-c2cc3ccccc3nc2OC)[nH]1 | –
85 nM | 687 nM | CCC(=O)CCCCC[C@H](NC(=O)C1CCC2(CC1)CN(C)C2)c1ncc(-c2cc3ccccc3nc2OC)[nH]1 | –
81 nM | 324 nM | CCC(=O)CCCCC[C@H](NC(=O)[C@H]1CC12CCCN(C)C2)c1ncc(-c2cc3ccccc3nc2OC)[nH]1 (some centres undefined) | –
15 nM | 30 nM | CCC(=O)CCCCC[C@H](NC(=O)[C@H]1CC12CCN(CC1CC1)CC2)c1ncc(-c2cc3ccccc3nc2OC)[nH]1 | –
112 nM | 719 nM | CCC(=O)CCCCC[C@H](NC(=O)[C@H]1CC12CCN(CC(F)(F)F)CC2)c1ncc(-c2cc3ccccc3nc2OC)[nH]1 | –
72 nM | 232 nM | CCC(=O)CCCCC[C@H](NC(=O)[C@H]1C[C@]12CCN(C)C2)c1ncc(-c2cc3ccccc3nc2OC)[nH]1 | –
26 nM | 83 nM | CCC(=O)CCCCC[C@H](NC(=O)[C@H]1CC12CCN(C)CC2)c1ncc(-c2cc3ccccc3nc2OC)[nH]1 | IC50 [3]: 157 nM; AUC [4]: 2.1 µM·h; Cmax [5]: 630 nM; half-life [6]: 6.6 h; clearance [7]: 22 mL/min/kg; bioavailability [8]: 13%; AUC [9]: 1.8 µM·h; Cmax [10]: 690 nM; half-life [11]: 7.2 h; clearance [12]: 8.5 mL/min/kg; bioavailability [13]: 22.4%
62 nM | 277 nM | CCC(=O)CCCCC[C@H](NC(=O)[C@H]1CC12CCN(Cc1cccnc1)CC2)c1ncc(-c2cc3ccccc3nc2OC)[nH]1 | –
110 nM | 477 nM | CCC(=O)CCCCC[C@H](NC(=O)C1CN(C)C1)c1ncc(-c2cc3ccccc3nc2OC)[nH]1 | –
